Data published in doi:10.1101/2024.12.18.629081v1 (biorxiv, 2024).

Key:
FGFR3 = FGFR3 (Homo sapiens, UniProt P22607); assay: SPR; assay type: binding
GCK = molecular target: T1, GCK (Homo sapiens, UniProt P35557); assay: G6PDH-coupled activation assay, A340; assay type: biochemical
T1 sequence (P35557 1-465): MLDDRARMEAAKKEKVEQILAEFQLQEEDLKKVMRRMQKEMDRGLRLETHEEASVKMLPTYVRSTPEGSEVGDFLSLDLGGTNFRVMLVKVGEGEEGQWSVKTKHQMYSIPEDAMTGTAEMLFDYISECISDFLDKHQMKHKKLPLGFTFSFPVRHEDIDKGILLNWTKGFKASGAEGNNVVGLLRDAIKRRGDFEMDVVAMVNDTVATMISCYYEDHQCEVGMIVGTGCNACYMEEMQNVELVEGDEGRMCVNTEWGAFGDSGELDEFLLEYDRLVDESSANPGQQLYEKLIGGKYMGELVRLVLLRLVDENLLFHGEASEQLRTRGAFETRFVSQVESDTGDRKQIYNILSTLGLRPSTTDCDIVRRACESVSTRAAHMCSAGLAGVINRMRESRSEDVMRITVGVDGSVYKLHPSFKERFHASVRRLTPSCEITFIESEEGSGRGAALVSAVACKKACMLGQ

Sequence of FGFR3 (P22607 449-759): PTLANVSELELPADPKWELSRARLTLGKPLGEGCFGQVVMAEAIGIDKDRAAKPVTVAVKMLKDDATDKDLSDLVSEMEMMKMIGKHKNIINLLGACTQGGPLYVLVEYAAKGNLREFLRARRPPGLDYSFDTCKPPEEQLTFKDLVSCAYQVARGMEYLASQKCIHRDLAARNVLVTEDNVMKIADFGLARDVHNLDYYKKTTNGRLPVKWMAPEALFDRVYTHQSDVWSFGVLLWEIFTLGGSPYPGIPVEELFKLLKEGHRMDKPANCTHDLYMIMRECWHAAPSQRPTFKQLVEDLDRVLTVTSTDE

Structure (SMILES) | Kd (FGFR3) | EC50 (GCK)
Nc1nc2c(s1)[C@H](c1ccc(F)cc1)CC(=O)N2 [F4] | 599 µM | 
Nc1nc2c(s1)[C@H](c1ccccc1OCc1ccc(Cl)cc1)CC(=O)N2 [F42] | 61.4 µM | 
CNc1ccc(Sc2nnc[nH]2)nc1C(=O)Nc1nccs1 [G0] |  | 1.81 ± 0.28 µM
Cc1cccc(Nc2ccc(Sc3nnc[nH]3)nc2C(=O)Nc2nccs2)c1 [G11] |  | 0.15 µM
